Test results: patent US20220296584A1, “Membrane Active Molecules” (priority 2017, published 2022)
“And” between values parts separate entries of the source, which are not always exact repeats. Equal entries are not always repeated.

Legend:
Format in all cases: in vivo
CF-1 mice = assay: Anticonvulsant test: intravenous metrazol (pentylenetetrazol) infusion, time to twitch and seizure; details: individual CF-1 mouse (Entry)
Method: CF-1 mice were used in this study. Number 20 PE tubing to cannulate a mouse tail vein was used. An infusion pump was used to deliver a solution at a rate of 0.34 mL/min. A hemostat was used to prevent backflow in the PE tubing before the experiment stated. To begin the experiment, the hemostat that was clamped to the PE 20 tubing was removed, the infusion of the solution was started into the tail IV of the mouse, and the timer was started.
The study reflects the time in seconds from the start of the infusion to the time of twitch and onset of seizure, or 90 seconds, whichever is sooner. When the seizure occurs, the infusion is turned off.
As a control, metrazol (pentylenetetrazol) in a 0.5% solution (5 mg/mL) in water was prepared. Pentylenetetrazol is used as a control to study seizure phenomena in and to identify compounds that may control seizure susceptibility. Solutions of 8 M butyric acid and 1.5 M 3-hydroxybutyric acid were made.
The time to twitch and time to seizure of the mouse in seconds is recorded in Tables 3-5, below.

mouse = assay: Anesthetic effect in mice after subcutaneous or intravenous injection of aqueous solutions
Method: Butyric acid was dissolved in water to form an 8 M solution. 0.5 mL of the 8 M solution of butyric acid was injected subcutaneously (at the back of the neck) into the mouse.
3-hydroxybutyric acid was dissolved in water to form 1 M, 1.5 M, and 2 M solutions. 0.2 mL of a 1.5 M solution of 3-hydroxybutyric acid was injected into a tail vein of a CD-1 mouse. […] This was repeated for at least 2 more times on subsequent days.
Ethylmalonic acid was dissolved in water to form 2 M, 3 M, and 4 M solutions. 0.2 mL of a 3 M solution of ethylmalonic acid was injected into a tail vein of a mouse. […] This was repeated for at least 2 more times on subsequent days.
Ethylmalonic acid was dissolved in water to form a 4 M solution. 0.5 mL of the 4 M solution of ethylmalonic acid was injected subcutaneously into the mouse.

Tadpoles = assay: Tadpole movement suppression (anesthetic efficacy)
Method: Tadpoles were placed in a petri dish containing aquarium water. Four to eight tadpoles were placed in each petri dish. The aquarium water contained the specified test compound at the listed concentration. When the tadpoles stopped moving, a plastic rod was used to elicit motion once again by contact between the rod and tadpole. […] From this and the number of subjects, the percent of tadpoles in which movement was suppressed were calculated.
After 1 to 30 minutes, they were again contacted with a rod to ensure the anesthetic effect had worn off
In some examples, subanesthetic concentrations of ethanol were added into the aquarium water. Tadpoles in which movement was prevented with exposure to a test compound and ethanol but not with exposure to a test compound alone were classified as partial anesthetics.

[1] = 0.5% metrazol tail vein infusion 0.34 mL/min
[2] = 1.5 M 3-hydroxybutyric acid solution plus metrazol
[3] = 8 M butyric acid solution plus metrazol

With `C1CCc2nnnn2CC1` [Metrazol, pentylenetetrazol, reference compound] the “Metrazol alone Time to Seizures” value (CF-1 mice; [1]) was 43 seconds (2×) and 42 seconds (2×) and 59 seconds and 45 seconds and 39 seconds and 49 seconds (2×) and the “Metrazol alone Time to Twitch” value (CF-1 mice; [1]) was 34 seconds (2×) and 33 seconds and 36 seconds (2×) and 37 seconds and 52 seconds and 31 seconds and 43 seconds.
In the case of `CC(O)CC(=O)O` (stereo not drawn) [3-hydroxybutyric acid], the “3-Hydroxybutyric Acid and Metrazol Time to Seizures” value (CF-1 mice; [2]) is reported as 74 seconds and 53 seconds (3×) and 48 seconds (2×) and 65 seconds and 61 seconds, the “3-Hydroxybutyric Acid and Metrazol Time to Twitch” value (CF-1 mice; [2]) is reported as 54 s and 49 s and 47 s and 38 s and 50 s and 45 s and 41 s and 56 s and the “Observed effect on the mouse” value (mouse; 0.2 mL of 1.5 M solution in water, tail vein, CD-1 mouse) is reported as “became unconscious or anesthetic”. For the same compound, the “Observed effect on the mouse” value (mouse; 1 M solution in water, tail vein, CD-1 mouse) was “did not have any observable effect” and the Lethality (mouse; 2 M solution in water, tail vein, CD-1 mouse) was “lethal”.
For `CCCC(=O)O` [Butyric acid], the “Movement suppressed (%)” value (Tadpoles; Concentration (mM): 62.5) was 100%, the “Movement suppressed (%)” value (Tadpoles; Concentration (mM): 125) was 100% and the “Movement suppressed (%)” value (Tadpoles; Concentration (mM): 250) was 100%. The “Movement suppressed (%)” value (Tadpoles; Concentration (mM): 500) was 100%, the “Butyric Acid and Metrazol Time to Seizures” value (CF-1 mice; [3]) was 51 seconds and 50 seconds (2×) and 47 seconds and 57 seconds (3×) and 42 seconds and 66 seconds and 41 seconds and 44 seconds and 38 seconds and 65 seconds and the “Butyric Acid and Metrazol Time to Twitch” value (CF-1 mice; [3]) was 38 seconds and 42 seconds and 44 seconds and 50 seconds and 34 seconds (2×) and 53 seconds (2×) and 48 seconds and 36 seconds (2×) and 35 seconds (2×). For the same compound, the Lethality (mouse; 0.2 mL of 8 M solution in water, intravenously through mouse tail vein) was “lethal” and the “Time until mouse woke up” value (mouse; 0.5 mL of 8 M solution in water, subcutaneously (back of the neck), mouse) was “several hours later”.
